Measured values reported in publication PMC3901259, “Characterisation of the Metabolites of 1,8-Cineole Transferred into Human Milk: Concentrations and Ratio of Enantiomers” (Metabolites, 2013).

Tests used:
[1] = Quantification of 1,8-cineole metabolites in human milk (SAFE, GC-MS, internal standard and matrix calibration) after oral intake of 100 mg 1,8-cineole; assay type: in vivo; details: for Absolute concentration in human milk: single determination
Description: Human milk samples were provided voluntarily by breastfeeding mothers after intake of the non-prescription pharmaceutical Soledum® (Klosterfrau Healthcare Group, Cologne, Germany). Before the beginning of the study, the participants were informed verbally, as well as in written form, about the study procedure and purpose and they were told that withdrawing from the study was possible at any time without giving any reason. All volunteers gave written consent to the analysis of their milk samples and anonymous publication of the resulting data. The Ethical Committee of the Medical Faculty, University Erlangen-Nuremberg, approved the experimental procedures. Each participant was handed a copy of the Soldeum® package instructions and was advised to read it before capsule intake. They were also advised to withdraw from the study if any negative reactions such as medication allergies or interactions with other drugs they were taking were to be expected. Additionally, the volunteers were informed verbally about potential effects of the pharmaceutical preparation on breastfeeding, i.e. the risk of an altered milk flavour and rejection of the milk by the nursling. Accordingly, if this would happen, the mothers were recommended to feed their babies with stored human milk or formula milk products.
The milk donors were between the ages of 29 and 40 years (mean 34 years). During their participation in the study, their breast milk production had to be normal and in excess of their infants' needs, with no breast infections and no overall medical complaints present. Five participants were primiparous, three were multiparous and the breast milk samples were from 19 weeks to 19 months postpartum. For sampling, either electrical or mechanical breast pumps or manual expression techniques were applied, resulting in sample volumes between 10 and 100 mL. The samples were immediately subjected to sample preparation after a maximum storage time of five hours at 7 °C or were stored in a freezer at −20 °C for up to five days.
The participating volunteers were asked to ingest one Soledum® capsule, containing 100 mg 1,8-cineole, and to wait until they themselves or another person began to notice the eucalyptus-like odour on their breath. […] The donors were instructed to keep notes on the dates of capsule intake, first eucalyptus-like odour on their breath and exact sampling time. Unfortunately it was difficult for some mothers to detect the smell on their breath so they expressed the samples after some time without having noticed the smell, or reported having been unsure about the smell. […] Some of the donors repeated the whole experiment and some expressed more than one sample after the capsule intake, resulting in 14 samples in total, from 8 different mothers.
Extracts containing the volatile fraction of the human milk samples were prepared by Solvent Assisted Flavour Evaporation (SAFE) after addition of deuterated 1,8-cineole as internal standard (solution in dichloromethane), followed by 10 min of stirring, then another addition of dichloromethane (50% v/v), and 30 min of stirring. The resulting stable phase was distilled in the SAFE-apparatus at 50 °C and approximately 1x10^−4 mbar. The volatile fraction of the samples was frozen with liquid nitrogen. After thawing, it consisted of two phases, formed by the dichloromethane and by the water out of the milk. The water phase was extracted three times with dichloromethane, and the solvent phases were combined and dried over anhydrous Na2SO4. Finally the sample extracts were concentrated by microdistillation according to Bemelmans at 50 °C to a total volume of 50 to 200 μL.
For GC-MS analyses, an Agilent MSD quadrupole system (GC 7890A with MSD 5975C, Agilent Technologies, Waldbronn, Germany) coupled with a CIS 4C (cooled injection system) and an MPS 2 auto-sampler (Gerstel GmbH & Co. KG, Duisburg, Germany) were used. […]

[2] = Determination of the ratios of enantiomers of chiral metabolites in human milk on chiral GC capillaries; assay type: in vivo; details: for Percentage E1: B-2b, B-2c of the same parent
Description: The separation of the chiral metabolites of 1,8-cineole was successfully achieved using different β- or γ-cyclodextrin-based stationary phases (Rt-bDEXsa, Rt-bDEXse, Rt-bDEXsm and Rt-yDEXsa) for gas chromatographic analysis. Table S1, in the supplementary material, lists the usable separation phases and the respective retention indices (determined according to van den Dool and Kratz) for each pair of enantiomers. It was therefore decided to use the following capillaries for the analysis of the human milk samples: Rt-bDEXsm for separation of 2,3-dehydro-, α2,3-epoxy-, 2-oxo-, 3-oxo- and 9-hydroxy-1,8-cineole, and Rt-yDEXsa for separation of α2-hydroxy-, α3-hydroxy- and β2-hydroxy-1,8-cineole, under the GC conditions described in the experimental section.
For GC-MS analyses, an Agilent MSD quadrupole system (GC 7890A with MSD 5975C, Agilent Technologies, Waldbronn, Germany) coupled with a CIS 4C (cooled injection system) and an MPS 2 auto-sampler (Gerstel GmbH & Co. KG, Duisburg, Germany) were used. Data collection and analysis were performed with the MSD ChemStation E.02.00.493 (Agilent Technologies, Inc.) software. Quantification experiments were carried out on DB-FFAP and DB-5 capillaries (30 m length, 0.25 mm inner diameter, 0.25 µm film thickness, Agilent J&W GC Columns, USA), and for monitoring of the ratio of enantiomers the chiral capillaries Rt-bDEXsa, Rt-bDEXse, Rt-bDEXsm and Rt-yDEXsa (30 m length, 0.32 mm inner diameter, 0.25 µm film thickness, Restek GmbH, Bad Homburg, Germany) were utilised. Pre-columns of uncoated, deactivated fused silica (0.53 mm inner diameter, 0.5 to 3.5 m length) were used to ensure that no potentially present low-volatile residues could contaminate the analytical capillaries. The temperature programme of the column oven was as follows: 40 °C for 2 min, 4 °C/min up to 170 °C, 40 °C/min up to 230 °C (Rt-DEX capillaries), 240 °C (DB-FFAP) and 250 °C (DB-5), respectively, and hold time at end temperature of 5 to 10 min. As carrier gas, helium was used at a flow rate of 1.3 mL/min (velocity 41.1 cm/s). Injection of 1 or 2 µL was performed by the auto-sampler.
For the separation of the pairs of enantiomers of the chiral metabolites of 1,8-cineole, four different capillaries (Rt-bDEXsa, Rt-bDEXse, Rt-bDEXsm, and Rt-yDEXsa) were evaluated for optimisation of the peak-to-peak resolution of the enantiomers by injecting a mixture of all the metabolites in a dichloromethane solution and by varying the heating rate. Besides the separation of each pair of enantiomers from each other, it was also important to confirm that no other metabolite coeluted with any one of the enantiomers, because the milk samples would most probably contain all metabolites. Moreover, the separation conditions for the mixture of reference substances were also tested on some human milk sample extracts and modified accordingly, where necessary, to avoid coelution with interfering matrix compounds.
For calculation of the ratio of enantiomers (that is, the relative abundance of each enantiomer to the not separated mixture of enantiomers), the peak area of each enantiomer was divided by the sum of the peak areas of both enantiomers and multiplied by 100. With the known concentrations of the chiral metabolites in each milk sample, the absolute concentration of each single enantiomer was also calculated by multiplying the concentration with the respective percentage.

[3] = parameters: method as in doi:10.1002/cplu.201200253; details: urine after 100 mg 1,8-cineole; cited from earlier work
[4] = parameters: method as in PMID 20425757; details: one volunteer, sage tea, overall intake 1.02 mg 1,8-cineole; cited from earlier work
[5] = sample A-1b (odour yes), oral 100 mg 1,8-cineole, values given with (<x) are approximations
[6] = sample B-1 (odour yes), oral 100 mg 1,8-cineole, values given with (<x) are approximations
[7] = sample B-2a (no odour), oral 100 mg 1,8-cineole
[8] = sample B-2b (odour yes), oral 100 mg 1,8-cineole, values given with (<x) are approximations
[9] = sample B-2c (no odour), oral 100 mg 1,8-cineole
[10] = sample D-1 (no odour), oral 100 mg 1,8-cineole, values given with (<x) are approximations
[11] = sample D-2 (odour yes), oral 100 mg 1,8-cineole, values given with (<x) are approximations
[12] = sample E-2 (odour yes), oral 100 mg 1,8-cineole, values given with (<x) are approximations
[13] = sample G (odour yes), oral 100 mg 1,8-cineole, values given with (<x) are approximations
[14] = sample H (odour yes), oral 100 mg 1,8-cineole, values given with (<x) are approximations

## CC12C=CC(CC1)C(C)(C)O2 (stereo not drawn) [2,3-dehydro-1,8-cineole, 2,3-Dehydro-1,8-cineole]
[1]; sample A-1a (no odour)
  Estimated maximum level in human milk (concentration calculated with the last calibration point, in parentheses): < 1.26 µg/kg
[1]; sample A-1a (no odour), oral 100 mg 1,8-cineole, values given with (<x) lie beyond calibration range, approximation
  Absolute concentration in human milk: 0.28 µg/kg
[1]; [5]
  Absolute concentration in human milk: 4.07 µg/kg
[1]; [6]
  Absolute concentration in human milk: 13.65 µg/kg
[1]; [7]
  Absolute concentration in human milk: 0.07 µg/kg
[1]; [8]
  Absolute concentration in human milk: 2.80 µg/kg
[1]; [9]
  Absolute concentration in human milk: 0.57 µg/kg
[1]; sample C (no odour)
  Estimated maximum level in human milk (concentration calculated with the last calibration point, in parentheses): < 0.88 µg/kg
[1]; sample C (no odour; very weak odour not caused by 1,8-cineole), oral 100 mg 1,8-cineole, values given with (<x) are approximations
  Absolute concentration in human milk: 0.73 µg/kg
[1]; sample D-1 (no odour)
  Estimated maximum level in human milk (concentration calculated with the last calibration point, in parentheses): < 0.97 µg/kg
[1]; [10]
  Absolute concentration in human milk: 0.45 µg/kg
[1]; [11]
  Absolute concentration in human milk: 5.13 µg/kg
[1]; sample E-1 (no odour)
  Estimated maximum level in human milk (concentration calculated with the last calibration point, in parentheses): < 1.21 µg/kg
[1]; sample E-1 (no odour), oral 100 mg 1,8-cineole, values given with (<x) are approximations
  Absolute concentration in human milk: 0.19 µg/kg
[1]; [12]
  Absolute concentration in human milk: 9.63 µg/kg
[1]; sample F (no odour), parent ingested two capsules, values given with (<x) are approximations
  Absolute concentration in human milk: 0.59 µg/kg
[1]; sample F (no odour), two capsules
  Estimated maximum level in human milk (concentration calculated with the last calibration point, in parentheses): < 2.40 µg/kg
[1]; [13]
  Absolute concentration in human milk: 21.24 µg/kg
[1]; [14]
  Absolute concentration in human milk: 37.69 µg/kg
[2]; human milk sample B-2a, excluded from Table 3
  Percentage E1 in single sample (outlier): 100%
[3]
  Presence in human urine: could not be found

## CC1(C)OC2(C)CCC1C1OC12 (stereo not drawn) [a2,3-epoxy-1,8-cineole, α2,3-epoxy-1,8-cineole]
[1]; [5]
  Absolute concentration in human milk: 2.48 µg/kg
[1]; [6]
  Absolute concentration in human milk: 7.65 µg/kg
[1]; sample B-2b (odour yes)
  Estimated maximum level in human milk (concentration calculated with the last calibration point, in parentheses): < 2.45 µg/kg
[1]; [8]
  Absolute concentration in human milk: 2.18 µg/kg
[1]; [9]
  Absolute concentration in human milk: 0.66 µg/kg
[1]; [10]
  Absolute concentration in human milk: 1.35 µg/kg
[1]; [11]
  Absolute concentration in human milk: 4.13 µg/kg
[1]; [12]
  Absolute concentration in human milk: 4.65 µg/kg
[1]; [13]
  Absolute concentration in human milk: 4.52 µg/kg
[1]; [14]
  Absolute concentration in human milk: 6.82 µg/kg
[3]
  Presence in human urine: could not be found

## CC1(C)OC2(CO)CCC1CC2 [7-hydroxy-1,8-cineole]
[1]; [5]
  Absolute concentration in human milk: 0.56 µg/kg
[1]; [6]
  Absolute concentration in human milk: 1.14 µg/kg
[1]; [7]
  Absolute concentration in human milk: 0.21 µg/kg
[1]; [8]
  Absolute concentration in human milk: 4.42 µg/kg
[1]; [9]
  Absolute concentration in human milk: 0.18 µg/kg
[1]; [11]
  Absolute concentration in human milk: 0.62 µg/kg
[1]; [12]
  Absolute concentration in human milk: 5.19 µg/kg
[1]; sample G (odour yes)
  Estimated maximum level in human milk (concentration calculated with the last calibration point, in parentheses): < 1.06 µg/kg
[1]; [13]
  Absolute concentration in human milk: 0.84 µg/kg
[1]; [14]
  Absolute concentration in human milk: 1.87 µg/kg
[4]
  Concentration in plasma: below the limit of quantitation

## CC12CCC(CC1)C(C)(CO)O2 (stereo not drawn) [9-hydroxy-1,8-cineole]
[1]; sample A-1b (odour yes)
  Estimated maximum level in human milk (concentration calculated with the last calibration point, in parentheses): < 1.08 µg/kg
[1]; [5]
  Absolute concentration in human milk: 0.46 µg/kg
[1]; sample B-1 (odour yes)
  Estimated maximum level in human milk (concentration calculated with the last calibration point, in parentheses): < 1.57 µg/kg
[1]; [6]
  Absolute concentration in human milk: 0.87 µg/kg
[1]; [7]
  Absolute concentration in human milk: 0.18 µg/kg
[1]; [8]
  Absolute concentration in human milk: 15.52 µg/kg
[1]; [9]
  Absolute concentration in human milk: 0.15 µg/kg
[1]; sample D-2 (odour yes)
  Estimated maximum level in human milk (concentration calculated with the last calibration point, in parentheses): < 1.82 µg/kg
[1]; [11]
  Absolute concentration in human milk: 0.46 µg/kg
[1]; [12]
  Absolute concentration in human milk: 16.95 µg/kg
[1]; sample G (odour yes)
  Estimated maximum level in human milk (concentration calculated with the last calibration point, in parentheses): < 3.33 µg/kg
[1]; [13]
  Absolute concentration in human milk: 0.73 µg/kg
[1]; sample H (odour yes)
  Estimated maximum level in human milk (concentration calculated with the last calibration point, in parentheses): < 1.86 µg/kg
[1]; [14]
  Absolute concentration in human milk: 1.83 µg/kg
[2]; one of the three samples B-2a
  Percentage E1: about 80%
[2]; the two other samples of B-2a
  Percentage E1: about 50%
[4]
  Concentration in plasma: 5.61 ng/mL
